≈ marks a conversion by molar mass, not a printed value. Entries after “also recorded” stand apart in the source; their conditions may differ.
How the values were obtained:
Jurkat cell line = system: Jurkat cell line; parameters: method as in PMID 20813537; conditions: antitumor effect; cited from earlier work
HepG2 = system: HepG2; parameters: method as in PMID 32510731; conditions: antiproliferative activity; cited from earlier work
HCT-116 [1] = system: HCT-116; parameters: method as in PMID 32510731; conditions: antiproliferative activity; cited from earlier work
MCF-7 = system: MCF-7; parameters: method as in PMID 32510731; conditions: antiproliferative activity; cited from earlier work
[2] = system: PARP1 (poly(ADP-ribose)polymerase 1); parameters: method as in PMID 37843892; conditions: cited from earlier work
[3] = system: PARP2 (poly(ADP-ribose)polymerase 2); parameters: method as in PMID 37843892; conditions: cited from earlier work
[4] = system: breast cancer cells (MCF-7); assay: MTS-based cytotoxicity assay, MCF-7; type: cell-based, human; conditions: Homo sapiens, MCF7, 72 h, 72 h treatment, 0.205–50 μM, mean ± SEM
Procedure: (§1) In this study, we applied the most extensively used MTS-based assay, which provides a valuable tool for determining cell viability by evaluating metabolic activity. The cytostatic activity of the tested compounds was defined as the half-maximal inhibitory concentration (IC50) causing a 50% decrease in the metabolic activity of the cells. It was determined against breast cancer (MCF-7), fibrosarcoma (HT-1080), and prostate cancer (PC-3) cells.
(§2) The tested compounds were tested against three different human cancer cell lines (breast adenocarcinoma MCF-7 ATCC® HTB-22^TM, fibrosarcoma HT-1080 ATCC® CCL121^TM, and prostate adenocarcinoma PC-3 ATCC® CRL-1435^TM). For the cell viability experiment, cells were seeded in transparent 96-well plates (FALCON no. 353072, Corning, Durham, NC, USA) in MEM (Gibco no. 31095-029, UK) supplemented with 10% heat-inactivated FBS (Gibco no. 10500-064, UK). The cell seeding density was as follows: MCF-7 12,000 cells/well, HT-1080 7000 cells/well, PC-3 10,000 cells/well. Cells were seeded one day before treatment with the tested compounds and cultured overnight. The confluence on the treatment day was around 30%. The tested compounds were dissolved in DMSO as 10 mM stock solutions and kept under −4 °C. On the day of experimentation, the medium was removed and replaced with a fresh one that contained the following: (1) dimethylsulfoxide (DMSO < 0.1%, vehicle control (Veh)); (2) increasing the concentration of compounds (0.205–50 μM, performed as a 2.5-fold serial dilution for dose–response analysis). Treatment with compounds was carried out for 72 h. Each treatment was replicated three times in a single experiment, with three separate experiments conducted. (n = 9). When significant variability in the results occurred, an additional test was performed on certain compounds. During the incubation, the cells were examined under an inverted microscope to check if the compounds had not precipitated in the culture medium. The inhibitory effect of compounds on the cell was examined using an MTS-based assay (Promega, Madison, WI, USA) following the manufacturer’s protocol. The absorbance was measured at 490 nm using Tecan Spark’s multimode plate reader (Tecan, Männedorf, Switzerland). A reference wavelength of 630 nm was used to subtract the background. IC50 values were calculated by fitting a non-linear regression to a sigmoidal dose–response curve in GraphPad Prism version 8.0.1.

[5] = system: fibrosarcoma cells (HT-1080); assay: MTS-based cytotoxicity assay, HT-1080; type: cell-based, human; conditions: Homo sapiens, HT-1080, 72 h, 72 h treatment, 0.205–50 μM, mean ± SEM
Procedure: as §1, §2

[6] = system: prostate cancer cells (PC-3); assay: MTS-based cytotoxicity assay, PC-3; type: cell-based, human; conditions: Homo sapiens, 72 h, 72 h treatment, 0.205–50 μM, mean ± SEM
Procedure: as §1, §2

PC-3 cell line = assay: IncuCyte caspase-3/7 apoptosis induction assay; type: cell-based, human; conditions: PC-3 cells, tested at 1 µM and 10 µM, monitored for 28 h; staurosporine 1 µM positive control
Procedure: Apoptosis induction tests were conducted using the IncuCyte system to test cells (PC-3) in an in vitro culture. […] The compounds were tested at 1 µM and 10 µM concentrations, and apoptosis was monitored for 28 h (Figure 6). The incubation time was selected based on the induction of apoptosis in the control cells. Staurosporine (STA) at a concentration of 1 µM was used as the positive control, while the negative control cells were treated with 0.1% DMSO (vehicle control). […].
Apoptosis was monitored in real time using the Incucyte® Caspase-3/7 for […] Dyes (Cat. No. 4776, Sartorius, Ann Arbor, MI, USA). The principle of this test is based on binding a DNA intercalating dye with the activation motif (DEVD) of caspase-3/7, allowing a quantitative analysis of cells to undergo caspase-3/7-mediated apoptosis in real time. For the experiment, PC3 cells were seeded in a black 96-well plate with transparent bottom (cat. no. 165305, ThermoScientific, Waltham, MA, USA) at 10,000 cells/well density and cultured overnight. The next day, the medium was removed, and the cells were treated with the tested compound. […] The IncuCyte S3 imaging system recorded kinetic measures of the number of caspase-3/7 positive cells. Repeat scanning to record phase and fluorescence images were every 2 h, for up to 28 h. […]

[7] = system: human embryonic kidney cells (HEK293); assay: Safety study in vitro (MTS viability), HEK293; type: cell-based; conditions: 0.205–50 μM, 72 h
Procedure: (§3) In drug development, particular attention should be paid to studying the safety profile of compounds. Promising drug candidates should not cause adverse effects on essential organ systems like the liver, kidney, or healthy cells in general. Systemic toxicity of the compound is the main factor limiting its therapeutic application and efficiency. In our study, a preliminary study on nephrotoxicity and hepatotoxicity was evaluated in human embryonic kidney cells (HEK293, ATCC® CRL1573™) and human hepatoma cells (HepG2, ATCC® HB8065™), respectively. HEK293 is commonly used to evaluate the cytotoxicity of nephrotoxic compounds [42]. HepG2 is a well-established in vitro human cell system to study liver toxicity. We also used healthy human skin fibroblast (HSF) to extend the cytotoxicity profile. All three cell lines were cultured in DMEM (Gibco no. 61965-026, UK) supplemented with 10% FBS (Gibco no. 10500-064, UK). For the experiment, cells were seeded (8 × 10^3 cells/100μL/well) in transparent 96-well plates (FALCON no. 353072, Corning, Durham, […], USA) and cultured overnight. […] DOX was a reference compound that adversely affected the liver, kidney, and healthy cells. Treatment with compounds was carried out for 72 h. Cell viability was examined using an MTS-based CellTiter96® AQueous One Solution Cell Proliferation Assay (Promega, Madison, WI, USA) following the manufacturer’s protocol.

[8] = system: human hepatoma cells (HepG2); assay: Safety study in vitro (MTS viability), HepG2; type: cell-based; conditions: 0.205–50 μM, 72 h
Procedure: as §3

[9] = system: human skin fibroblast (HSF); assay: Safety study in vitro (MTS viability), HSF; type: cell-based; conditions: 0.205–50 μM, 72 h
Procedure: as §3

[10] = system: colorectal adenoma cancer cell line (HT-29); parameters: method as in doi:10.1016/j.tet.2006.12.076; conditions: cancer cell line growth inhibition; cited from earlier work
[11] = system: breast cancer cell line (MCF-7); parameters: method as in doi:10.1016/j.tet.2006.12.076; conditions: cancer cell line growth inhibition; cited from earlier work
[12] = system: human lymphocyte cell line (CEM); parameters: method as in PMID 30060562; conditions: anticancer activity; cited from earlier work
HCT-116 [13] = system: HCT-116; parameters: method as in PMID 37903949; conditions: cytotoxic activity; cited from earlier work
[14] = system: murine leukemia cell line (L1210); conditions: cytotoxicity; cited from earlier work
[15] = system: epidermoid carcinoma cell line (KB); conditions: cytotoxicity; cited from earlier work

## Cc1cn(C2CC(c3ccccc3Cl)N(C)O2)c(=O)[nH]c1=O (stereo not shown) [Compound 5]
Jurkat cell line
  IC50: 8.8 ± 4.4 µM

## O=C(Cn1c(=O)c2ccccc2n(Cc2ccccc2)c1=O)Nc1ccc(C(=O)N/N=C/c2ccc(Cl)cc2)cc1 [Compound 14]
HepG2
  GI50: 9.16 ± 0.8 µM
HCT-116 [1]
  GI50: 5.69 ± 0.4 µM
MCF-7
  GI50: 5.27 ± 0.2 µM

## O=C(c1cc(Cn2c(=O)[nH]c(=O)c3ccccc32)ccc1F)N1CCN(C2CCCC2)C(=O)C1 [Compound 15]
[2]
  PARP1 inhibition: inhibited
[3]
  PARP2 inhibition: inhibited

## O=c1c2ccccc2n(C[C@@H]2C[C@@H](P(=O)(OCc3ccccc3)OCc3ccccc3)N(Cc3ccccc3)O2)c(=O)n1Cc1ccccc1F (relative stereo) [trans-16b, Dibenzyl cis- and trans-5-((3-(2-fluorobenzyl)-3,4-dihydro-2,4-dioxoquinazolin-1(2H)-yl)methyl)-2-benzylisoxazolidin-3-yl-3-phosphonate]
[4]
  IC50: 78.7 ± 2.35 µM
[5]
  IC50: 34.6 ± 5.3 µM
[6]
  IC50: 9.84 ± 3.69 µM
PC-3 cell line
  Induction of apoptosis (caspase-3/7 positive cells): comparable to that induced with staurosporine; also recorded: highest induction of apoptosis; also recorded: strongly induced apoptosis
[7]
  Cell viability, HEK293: did not affect cell viability
[8]
  Cell viability, HepG2: did not affect cell viability
[9]
  Cell viability, HSF: no adverse effect was observed

## O=c1[nH]cc(F)c(=O)[nH]1 [5-Fluorouracil]
[10]
  GI, HT-29: 34%
[11]
  GI, MCF-7: 31%
[12]
  IC50: 18 ± 5 µM

## COc1cc2nccc(Oc3ccc(NC(=O)C4(C(=O)Nc5ccc(F)cc5)CC4)cc3)c2cc1OC [cabozantinib, reference compound]
HCT-116 [13]
  IC50: 16.4 ± 0.86 µM

## C(=C/CCCCN1OC(CCCCCCCCc2cccnc2)C2CCCC21)/CCCCCCCCCc1cccnc1 (stereo not shown) [pyrinodemin A]
[14]
  IC50, L1210: 0.058 µg/mL (≈ 0.0987 µM)
[15]
  IC50, KB: 0.5 µg/mL (≈ 0.85 µM)

Source: PMC11243672, “New 3-(Dibenzyloxyphosphoryl)isoxazolidine Conjugates of N1-Benzylated Quinazoline-2,4-diones as Potential Cytotoxic Agents against Cancer Cell Lines” (Molecules, 2024)
